# Measurements taken from PubChem BioAssay (NCI).
#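 96-well plates; 48 h exposure; 5 concentrations. Endpoints by linear interpolation between flanking doses. Not reached: highest tested concentration assigned. GI50: concentration for 50% inhibition of growth. The concentration for full growth arrest is given as TGI.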
# What was measured:
# Assay in all cases: NCI-60 cell line screen, 48 h
# OVCAR-3 ovarian = tested on: OVCAR-3 ovarian
# SN12C renal = tested on: SN12C renal
# SF-268 CNS = tested on: SF-268 CNS
# HOP-92 NSCLC = tested on: HOP-92 NSCLC
# EKVX NSCLC = tested on: EKVX NSCLC
# NCI-H226 lung = tested on: NCI-H226 lung
# TK-10 renal = tested on: TK-10 renal
# SW-620 colon = tested on: SW-620 colon
# MCF7 breast = tested on: MCF7 breast
# RPMI-8226 leukemia = tested on: RPMI-8226 leukemia
# IGROV1 ovarian = tested on: IGROV1 ovarian
# T-47D breast = tested on: T-47D breast
# CAKI-1 renal = tested on: CAKI-1 renal
# UO-31 renal = tested on: UO-31 renal
# COLO 205 colon = tested on: COLO 205 colon
# SF-539 CNS = tested on: SF-539 CNS
# NCI-H522 lung = tested on: NCI-H522 lung
# HT29 colon = tested on: HT29 colon
# OVCAR-4 ovarian = tested on: OVCAR-4 ovarian
# A498 renal = tested on: A498 renal
# UACC-257 melanoma = tested on: UACC-257 melanoma
# LOX IMVI melanoma = tested on: LOX IMVI melanoma
# SR leukemia = tested on: SR leukemia
# PC-3 prostate = tested on: PC-3 prostate
# HCC-2998 colon = tested on: HCC-2998 colon
# SK-OV-3 ovarian = tested on: SK-OV-3 ovarian
# DU-145 prostate = tested on: DU-145 prostate
# U251 CNS = tested on: U251 CNS
# CCRF-CEM leukemia = tested on: CCRF-CEM leukemia
smiles,measurement,setting,value
CN(c1ccc(Cl)c(Cl)c1)c1cnc2cc(N)cc(N)c2n1,TGI,OVCAR-3 ovarian,10.9 µM
same,GI50,SN12C renal,1.75 µM
same,TGI,SN12C renal,3.27 µM
same,GI50,SF-268 CNS,4.62 µM
same,TGI,SF-268 CNS,25 µM
same,GI50,HOP-92 NSCLC,13.1 µM
same,TGI,HOP-92 NSCLC,33.4 µM
same,GI50,EKVX NSCLC,3.63 µM
same,TGI,EKVX NSCLC,11.2 µM
same,GI50,NCI-H226 lung,15.1 µM
same,TGI,NCI-H226 lung,33.9 µM
same,GI50,TK-10 renal,13.2 µM
same,TGI,TK-10 renal,27.7 µM
same,GI50,SW-620 colon,2.04 µM
same,TGI,SW-620 colon,4.34 µM
same,GI50,MCF7 breast,2.03 µM
same,TGI,MCF7 breast,4.93 µM
same,GI50,RPMI-8226 leukemia,3.65 µM
same,TGI,RPMI-8226 leukemia,26 µM
same,GI50,IGROV1 ovarian,5.27 µM
same,TGI,IGROV1 ovarian,60.2 µM
same,GI50,T-47D breast,2.45 µM
same,TGI,T-47D breast,8.95 µM
same,GI50,CAKI-1 renal,4.08 µM
same,TGI,CAKI-1 renal,17.6 µM
same,GI50,UO-31 renal,3.4 µM
same,TGI,UO-31 renal,16.6 µM
same,GI50,COLO 205 colon,1.79 µM
same,TGI,COLO 205 colon,3.47 µM
same,GI50,SF-539 CNS,4.71 µM
same,TGI,SF-539 CNS,17 µM
same,GI50,NCI-H522 lung,2.58 µM
same,TGI,NCI-H522 lung,6.5 µM
same,GI50,HT29 colon,4.07 µM
same,TGI,HT29 colon,22 µM
same,GI50,OVCAR-4 ovarian,1.71 µM
same,TGI,OVCAR-4 ovarian,3.32 µM
same,GI50,A498 renal,17.6 µM
same,TGI,A498 renal,32.3 µM
same,GI50,UACC-257 melanoma,1.81 µM
same,TGI,UACC-257 melanoma,3.59 µM
same,GI50,LOX IMVI melanoma,1.84 µM
same,TGI,LOX IMVI melanoma,3.74 µM
same,GI50,SR leukemia,3.77 µM
same,TGI,SR leukemia,> 100 µM
same,GI50,PC-3 prostate,4.15 µM
same,TGI,PC-3 prostate,18.1 µM
same,GI50,HCC-2998 colon,11.5 µM
same,TGI,HCC-2998 colon,24.5 µM
same,GI50,SK-OV-3 ovarian,13.6 µM
same,TGI,SK-OV-3 ovarian,37.8 µM
same,GI50,DU-145 prostate,2.74 µM
same,TGI,DU-145 prostate,7.34 µM
same,GI50,U251 CNS,2.62 µM
same,TGI,U251 CNS,6.86 µM
same,GI50,CCRF-CEM leukemia,2.64 µM
same,TGI,CCRF-CEM leukemia,8.7 µM
